# In patent US9968636B2, “Peritoneal dialysis fluid comprising a GSK-3 inhibitor” (ZYTOPROTEC GMBH, priority 2011, dated 2018):
# “Also recorded” adds a separate entry of the source.
# What was measured:
# [1] = test system: human Met-5a cell line (mesothelial cells); assay: LDH release into the supernatant after PD fluid exposure; assay type: cell-based; settings: for LDH levels: icodextrin-based fluid
# Procedure: (§1) The human Met-5a cell line was purchased from American Type Culture Collection (ATCC, Rockville, Md.). All cells were cultured in M199 culture medium supplemented with L-glutamine (0.1 g/L), penicillin (100 U/mL), streptomycin (100 μg/mL), 10% fetal bovine serum (FBS) and propagated at 37° C. in a humidified air containing 5% CO2 incubator. Standard chemicals were purchased from Sigma-Aldrich (St. Louis, Mo., USA) unless otherwise stated. Falcon™ tissue culture plastics (Becton Dickinson, Franklin Lakes, N.J., USA) were used for all cell culture procedures.
# (§2) PDF exposure model: confluent cultures on 12-well plates were exposed for the indicated times (30 min or 1 h) to the PD fluid solution or kept in parallel in control medium. For HSF-1 activity assay, cells were harvested and lysed immediately after exposure times, whereas for measurements of LDH and HSP-72, p-GSK-3β Western blot analysis, cells were allowed to recover by incubation with normal culture medium containing 10% FBS for 16 h.
# For LDH analyses, 200 μL aliquots of supernatants were removed after the described experimental setup and kept on −20° C. until analyzed within 48 h. Measurements were performed in duplicates with Sigma TOX-7 LDH Kit according to the manufacturer's instructions. LDH efflux was normalized for protein content.
# [2] = test system: heat shock factor-1 (HSF-1); assay: HSF-1 activity by Luciferase assay (heat shock element reporter); assay type: cell-based, human; settings: 10 mM LiCl; control cells, glucose-based low pH high GDP and low pH icodextrin-based PD fluids; 30 min exposure, 6 h recovery; FIG. 4
# Procedure: as §2, with “[…],” for “For HSF-1 activity assay, cells were harvested and lysed immediately after exposure times,”
# To determine the specific binding of the heat shock factor-1 (HSF-1), a commercially available Luciferase Reporter Vector (LR0038, Panomics, Italy) containing the heat shock element [5′[…]3′] as well as an empty control vector were transfected into the MeT-5a cells. 24 h prior to transfection, MC were seeded onto 96-well cell culture plates and allowed to reach approximately 80-90% confluence on day of transfection. Before transfection per well 0.15 μl Fugene6 (Roche) transfection reagent and 0.1 μl HSE reporter vector or control vector were each diluted with 5 μl of normal growth medium without FCS and incubated for 5 min. The solutions were mixed incubated for 30 min. Of this mix 10 μl were added to each well incubated for 24 h at 5% CO2 and 37° C. in a humidified atmosphere. […] The luciferase reagent (E1500, Promega) was added using an automatic pipette in 3 s intervals and the yielded signal was measured after 2 min using a luminometer plate reader (Flx800, BioTek).
# [3] = test system: Heat shock protein-72 (HSP-72); assay: HSP-72 expression by Western blot; assay type: cell-based, human
# Procedure: as §2
# For western blotting, protein content is determined by the Bradford assay (Biorad, Vienna, Austria) and equal amounts of protein samples (2 μg/lane) are separated by standard SDS-PAGE using a Pharmacia Multiphore II unit. Size-fractionated proteins are then transferred to PVDF membranes by semi-dry transfer in a Pharmacia Multiphore II Novablot unit. Membranes are blocked in 5% dry milk in TBS-Tween (10 mM Tris, 150 mM NaCl, 0.05% Tween 20, pH 7.4). Membranes are incubated with the respective primary antibody (HSP-72, p-GSK-3β) for 16 h. Detection is accomplished by incubation with secondary, peroxidase-coupled antibodies (anti-mouse or anti-rabbit IgG, both Dako Cytomation, Calif., USA) and enhanced chemiluminescence (ECL) using the ECL western blotting analysis system (Renaissance, NEN-Life Science Products, Boston, Mass., USA).
# [4] = test system: human Met-5a cell line (mesothelial cells); assay: Cell viability by neutral red uptake after PD fluid exposure; settings: 10 mM LiCl; low pH glucose-based or icodextrin-based PD fluids; 1 h exposure, 16 h recovery; FIG. 3
# Procedure: as §1, §2
# To assess cell viability by neutral red uptake, cells were seeded out to 96-well plates and exposed to different treatment protocols as described before. Neutral red uptake was measured using a standard reagent (Sigma-Aldrich, St. Louis, Mo., USA) according to the manufacturer's protocol.
# [5] = test system: mesothelial cells; assay: Light microscopy and vital-dead (live-dead) staining of mesothelial cells; assay type: cell-based, human; settings: LiCl, low pH glucose-based or icodextrin-based PD fluids, data not shown
# Procedure: as §2
smiles,measurement,setting,value
"[Cl-].[Li+] [LiCl, Lithium-chloride]",LDH release (cell injury),"[1]; 10 mM LiCl added, all PD fluids observed, 1 h exposure, 16 h recovery, vs no LiCl, FIG. 2",decreased LDH release; also recorded: attenuated LDH release
same,protection (LDH release),"[1]; 10 mM LiCl, incubation with low pH glucose-based and icodextrin-based solutions, FIG. 2",most prominent protection
same,LDH levels,"[1]; 1 mM LiCl, FIG. 6",did not change significantly
same,LDH levels,"[1]; 2 mM LiCl, FIG. 6",already decreased
same,LDH levels,"[1]; 5 mM LiCl, FIG. 6",the decrease was even more significant
same,LDH levels,"[1]; 10 mM LiCl, FIG. 6",the decrease was even more significant
same,LDH release,"[1]; low pH glucose-based (PDF) fluid, 10 mM LiCl, FIG. 6",significantly reduced
same,release of LDH into the supernatant,"[1]; low pH glucose-based (PDF) fluid, LiCl 1 mM to 5 mM, FIG. 6",did not alter
same,HSF-1 transcriptional activity,[2],significantly increased
same,level of HSP-72,"[3]; 10 mM LiCl, each incubation setting (glucose-based or icodextrin-based PD fluid, 30 min or 1 h) vs respective untreated cells, FIG. 5",significantly increased
same,HSP-72 expression,"[3]; glucose-based low pH PDF, LiCl 1, 2, 5, 10 mM vs untreated cells, 30 min exposure, 16 h recovery, FIG. 8",increased only after administration of either 2 mM or 10 mM LiCl
same,HSP-72 protein expression,"[3]; icodextrin-based PD fluid, LiCl 1, 2, 5, 10 mM, 30 min exposure, 16 h recovery, FIG. 8",all the applied LiCl doses increased
same,number of viable cells (neutral red uptake),[4],improved cell viability; also recorded: increased number of viable cells
same,cell structure,[5],preserved cell structure
same,rate of dead cells,[5]; live-dead staining,reduced cell death rate; also recorded: reduced rate of dead cells
